Where a name gives a salt, the structure may show the parent alone. Read-outs that look alike come from different tables or passages of the source.
System: murine neural precursor cells (neurosphere cultures)
Assay: HTS of LOPAC library against secondary neurosphere cultures, MTT proliferation assay at 3 μM, day 7 (z score, P value)
Assay type: cell-based, mouse
[1] = LOPAC primary screen, neurosphere MTT proliferation, 3 μM, day 7
[2] = yes/no: significantly inhibited neurosphere proliferation (P<0.01) in primary screen
[3] = LOPAC library screen, 3 μM, MTT, neurosphere cultures
[4] = yes/no: significantly inhibited neurosphere proliferation in primary screen
[5] = LOPAC library screen, 3 μM, MTT, secondary neurosphere cultures, day 7
[6] = LOPAC library screen at 3 μM, MTT, secondary neurosphere cultures, screened in singlets
[7] = primary LOPAC screen, 3 μM, MTT, neurosphere proliferation
[8] = yes/no: significantly inhibited neurosphere proliferation in the primary screen
[9] = LOPAC library screen at 3 μM, secondary neurosphere cultures, MTT
[10] = yes/no: significantly inhibited neurosphere proliferation (P<0.01) in the primary screen
[11] = yes = significantly inhibited neurosphere proliferation (P<0.01) in the primary screen
[12] = LOPAC screen, neurosphere MTT proliferation, 3 μM, day 7

Compound: CC(C)[C@@]1(NC(=O)[C@@H]2C=C3c4cccc5[nH]cc(c45)C[C@H]3N(C)C2)O[C@@]2(O)[C@@H]3CCCN3C(=O)[C@H](Cc3ccccc3)N2C1=O [Ergocristine]
- Z Score: 0.4078
- Z score [1]: 0.408
- Activity [2]: no

Compound: O=C(O)CCC(=O)N1CCC[C@H]1C(=O)O [N-Succinyl-L-proline]
- Z Score [3]: 0.7246
- Z score [1]: 0.725
- Activity [4]: no

Compound: O=C(O)[C@H]1CCCN[C@H]1C(=O)O (racemic) [(±)-cis-Piperidine-2,3-dicarboxylic acid]
- Z score (168 h, 3 µM): 0.155
- Activity [4]: no

Compound: C=C[C@H]1C[N@@]2CC[C@H]1C[C@@H]2[C@@H](O)c1ccnc2ccc(OC)cc12 [Quinidine sulfate]
- Z Score [5]: −1.93
- Z score [1]: −1.930
- Activity [4]: no

Compound: CC(C)NC[C@@H](O)COc1ccc(CC(N)=O)cc1 [R(+)-Atenolol]
- Z Score [6]: 3.764
- Z score [7]: 3.764
- Activity [8]: no

Compound: Nc1nc2c(ncn2COCCO)c(=O)[nH]1 [Acyclovir]
- Z Score [9]: −1.215
- Z score [1]: −1.215
- Activity [10]: no

Compound: Cl.c1ccc2sc(C3(N4CCCCC4)CCCCC3)cc2c1 [BTCP hydrochloride]
- Z Score: 0.8361
- Z score [1]: 0.836
- Activity [11]: no

Compound: CN(C)c1nc(N(C)C)nc(N(C)C)n1 [Altretamine]
- Z Score [5]: −1.322
- Z score [7]: −1.322
- Activity [8]: no

Compound: NCCc1c[nH]c2ccc(C(N)=O)cc12.O=C(O)/C=C\C(=O)O [5-Carboxamidotryptamine maleate]
- Z Score [6]: 1.667
- Z score [12]: 1.667
- Activity [2]: no

Compound: CN(C)C(=O)Oc1ccc[n+](C)c1 [Pyridostigmine bromide]
- Z Score: 0.2311
- Z score [1]: 0.231
- Activity [4]: no

Compound: CNc1cc(NS(=O)(=O)c2ccc(N)cc2)nc(NC)n1.Cl.Cl [Ro 04-6790 dihydrochloride]
- Z Score: 0.3428
- Z score [1]: 0.343
- Activity [4]: no

Compound: CC(C)[C@@H]1NC(=O)[C@H](CCCCN)NC(=O)[C@@H](Cc2c[nH]c3ccccc23)NC(=O)[C@H](Cc2ccc(O)cc2)NC(=O)[C@H](C)N(C)C(=O)[C@H](Cc2ccccc2)NC1=O [Seglitide]
- Z Score [9]: −0.662
- Z score [1]: −0.662
- Activity [4]: no

Compound: CC1(C(=O)O)C2CCC(O2)C1(C)C(=O)O (stereo not shown) [Cantharidic Acid]
- Z Score: −0.5529
- Z score [12]: −0.553
- Activity [2]: no

Compound: CCCCCCCCCCCCCCCC(=O)NCC(COP(=O)([O-])OCC[N+](C)(C)C)OCC (racemic) [rac-2-Ethoxy-3-hexadecanamido-1-propylphosphocholine]
- Z Score (168 h, 3 µM): −1.269
- Z score (168 h, 3 µM): −1.269
- Activity [2]: no

Compound: Cl.c1ccc([C@H]2CN3CCSC3=N2)cc1 [(−)-Teramisole hydrochloride]
- Z score [1]: −1.866
- Activity [2]: no

Compound: (−)-Bicuculline methbromide, 1(S), 9(R)
- Activity: no
- Z Score: −1.842
- Z score [1]: −1.842

Compound: CC1=C(C(=O)O)N2C(=O)[C@@H](NC(=O)[C@H](N)c3ccccc3)[C@H]2SC1 [Cephalexin hydrate]
- Z Score [5]: −3.966
- Z score [1]: −3.966
- Activity [10]: yes

Compound: Oc1ccc2c3c1O[C@H]1[C@@H](O)CC[C@@]4(O)[C@@H](C2)N(CC2CCC2)CC[C@]314 [Nalbuphine hydrochloride]
- Activity: no
- Z Score: 0.07032
- Z score: 0.070

Compound: Cl.O[Si](CCCN1CCCCC1)(c1ccc(F)cc1)C1CCCCC1 (stereo not shown)
- Z Score [5]: −1.492
- Z score [1]: −1.492
- Activity [2]: no

Compound: R-(−)-Desmethyldeprenyl hydrochloride
- Z Score: −0.5056
- Z score [12]: −0.506
- Activity [2]: no

Compound: Br.CCCN(CCC)C1CCc2cccc(O)c2C1 (racemic) [(±)-8-Hydroxy-DPAT hydrobromide]
- Z score [1]: 0.656
- Activity [10]: no

Compound: C/C(O)=C(\C#N)C(=O)Nc1cc(Br)ccc1Br [LFM-A13]
- Z Score: 4.5
- Z score [1]: 4.500
- Activity [2]: no

Compound: O=C(O)[C@@H]1CCN1 [L-azetidine-2-carboxylic acid]
- Z Score: 0.9837
- Z score [1]: 0.984
- Activity [4]: no

Compound: CCCN1C[C@H](CSC)C[C@@H]2c3cccc4[nH]cc(c34)C[C@H]21 [Pergolide methanesulfonate]
- Z Score [5]: −2.657
- Z score [1]: −2.657
- Activity [10]: yes

Compound: NC(=O)CC[C@H](N)C(=O)O [L-Glutamine]
- Z Score (168 h, 3 µM): 0.8278
- Z score (168 h, 3 µM): 0.828
- Activity [2]: no

Compound: CN(C)CCN(Cc1cccs1)c1ccccn1 [Methapyrilene hydrochloride]
- Z Score [3]: 0.6276
- Z score [1]: 0.628

Compound: Cc1cnc(C(=O)NCCc2ccc(S(=O)(=O)NC(=O)NC3CCCCC3)cc2)cn1 [Glipizide]
- Activity: no
- Z Score [9]: −0.8295
- Z score [1]: −0.830

Compound: CCCCCCCCCCCCCCC[C@H](O)[C@H](N)CO (racemic) [DL-erythro-Dihydrosphingosine]
- Z Score [3]: −0.0785
- Z score [12]: −0.079
- Activity [2]: no

Compound: CCCN(CC1CC1)c1nc(C)nc(Nc2c(Cl)cc(Cl)cc2Cl)c1Cl [NBI 27914]
- Z Score: 0.1345
- Z score [1]: 0.134
- Activity [2]: no

Compound: Cl.N=C(N)NC(=O)Cc1c(Cl)cccc1Cl [Guranfacine hydrochloride]
- Z score [1]: 0.927
- Activity [2]: no

Compound: CN(C)CCC(c1ccc(Cl)cc1)c1ccccn1.O=C(O)/C=C\C(=O)O (racemic) [(±)-Chlorpheniramine maleate]
- Activity: no
- Z score: −2.116

Compound: CCc1c(C(=O)OC)ncc2[nH]c3cc(OC)c(OC)cc3c12 [Methyl 6,7-dimethoxy-4-ethyl-beta-carboline-3-carboxylate]
- Z Score: −1.326
- Z score [1]: −1.326
- Activity [2]: no

Compound: CNC1(C)C2CCC(C2)C1(C)C (stereo not shown) [Mecamylamine hydrochloride]
- Z Score [5]: −2.108
- Z score [1]: −2.108
- Activity [11]: no

Compound: CN1C[C@H](O)[C@@H](O)[C@H](O)[C@H]1CO [N-Methyl-1-deoxynojirimycin]
- Z Score: −1.335
- Z score [1]: −1.335
- Activity [11]: no

Compound: O=C(CCCN1CCC(O)(c2cccc(C(F)(F)F)c2)CC1)c1ccc(F)cc1 [Trifluperidol hydrochloride]
- Z Score [5]: −1.621
- Z score [7]: −1.621
- Activity [8]: no

Compound: Clc1ccc(Cn2c(CN3CCCC3)nc3ccccc32)cc1 [Clemizole hydrochloride]
- Z Score [6]: 2.788
- Z score [12]: 2.788
- Activity [2]: no

Compound: NCCCCNS(=O)(=O)c1ccc2c(Cl)cccc2c1 [N-(4-Aminobutyl)-5-chloro-2-naphthalenesulfonamide]
- Z score (168 h, 3 µM): −0.923
- Activity [4]: no

Compound: CN1C[C@H](CNC(=O)OCc2ccccc2)C[C@@H]2c3cccc4c3c(cn4C)C[C@H]21 [Metergoline (39), Metergoline, reference compound]
- Z Score [5]: −4.342
- Z score [1]: −4.342
- Activity [10]: yes

Compound: LY-367,265
- Z Score: −0.407
- Z score [1]: −0.407
- Activity [2]: no

Compound: (−)-Cotinine
- Z Score [9]: −0.5099
- Z score [12]: −0.510
- Activity [2]: no

Compound: CC(C)NC(C)Cc1ccc(I)cc1 (stereo not shown) [Iofetamine hydrochloride]
- Z Score: −0.7588
- Z score [1]: −0.759

Compound: CC(C)(C)NCC(O)COc1cccc2[nH]c(=O)[nH]c12.Cl (stereo not shown) [(B1)-CGP-12177A hydrochloride]
- Z Score: −1.611

Compound: O=C1C=CC(=O)C=C1 [p-Benzoquinone]
- Activity: no
- Z Score [5]: −1.571
- Z score [7]: −1.571

Compound: O=C(O)/C=C\C(=O)O.O=C(O)/C=C\C(=O)O.c1cc(CN2CCCCC2)cc(OCCCNc2nc3ccccc3s2)c1 [SKY 95282 dimaleate]
- Z Score: 0.4241

Compound: (−)Amethopterin
- Z Score [5]: −8.704
- Z score [1]: −8.704
- Activity [10]: yes

Compound: Cl.Fc1ccc(C(OCCCc2c[nH]cn2)c2ccc(F)cc2)cc1
- Z Score: −0.01466

Compound: O=[N+]([O-])c1ccc(CSc2ncnc3c2ncn3[C@@H]2O[C@H](CO)[C@@H](O)[C@H]2O)cc1 [S-(4-Nitrobenzyl)-6-thioinosine]
- Z Score (168 h, 3 µM): −0.4271
- Z score (168 h, 3 µM): −0.427
- Activity [11]: no

Compound: C=CC(N)CCC(=O)O (stereo not shown) [(B1)-gamma-Vinyl GABA]
- Z Score: −0.701

Compound: COc1ccc2c(c1)c(CC(=O)O)c(C)n2Cc1ccc(F)cc1 [1-(4-Fluorobenzyl)-5-methoxy-2-methylindole-3-acetic acid]
- Z Score (168 h, 3 µM): −0.5376
- Z score (168 h, 3 µM): −0.538
- Activity [2]: no

Compound: NC(=NCc1ccccc1)NC(=O)c1nc(Cl)c(N)nc1N [Benzamil hydrochloride]
- Z Score [9]: −1.054
- Z score [12]: −1.054
- Activity [2]: no

Compound: CC1CNCCN1S(=O)(=O)c1cccc2cnccc12.Cl.Cl (stereo not shown) [H-7 dihydrochloride]
- Z Score: 0.6813
- Z score [1]: 0.681

Compound: OC[C@H]1O[C@@H](n2cnc3ccccc32)[C@H](O)[C@@H]1O [D-ribofuranosylbenzimidazole]
- Z Score: −2.144
- Z score [12]: −2.144
- Activity [2]: no

Compound: Picrotoxin
- Z Score: 0.7771
- Z score [1]: 0.777
- Activity [4]: no

Compound: Cl.Cl.c1ccc(CCCN2CCN(CCOC(c3ccccc3)c3ccccc3)CC2)cc1 [GBR-12935 dihydrochloride]
- Z Score: −11.27
- Z score [1]: −11.274
- Activity [10]: yes
